As a reminder, the IC50 is the concentration needed to halve the response being measured.

The record followed here is patent US7795255B2, “Rigidified compounds for modulating heparanase activity” (InSight Biopharmaceuticals Ltd., priority 2005, dated 2010).

Test [1] concerns the target T1, recombinant human pro-heparanase (H60) (Homo sapiens, UniProt Q9Y251).
T1 construct: Heparanase maturation involves the removal of the signal peptide, transforming the 65 kDa pre-pro-heparanase into a 60 kDa pro-heparanase; made in house
T1 sequence (Q9Y251 36-543): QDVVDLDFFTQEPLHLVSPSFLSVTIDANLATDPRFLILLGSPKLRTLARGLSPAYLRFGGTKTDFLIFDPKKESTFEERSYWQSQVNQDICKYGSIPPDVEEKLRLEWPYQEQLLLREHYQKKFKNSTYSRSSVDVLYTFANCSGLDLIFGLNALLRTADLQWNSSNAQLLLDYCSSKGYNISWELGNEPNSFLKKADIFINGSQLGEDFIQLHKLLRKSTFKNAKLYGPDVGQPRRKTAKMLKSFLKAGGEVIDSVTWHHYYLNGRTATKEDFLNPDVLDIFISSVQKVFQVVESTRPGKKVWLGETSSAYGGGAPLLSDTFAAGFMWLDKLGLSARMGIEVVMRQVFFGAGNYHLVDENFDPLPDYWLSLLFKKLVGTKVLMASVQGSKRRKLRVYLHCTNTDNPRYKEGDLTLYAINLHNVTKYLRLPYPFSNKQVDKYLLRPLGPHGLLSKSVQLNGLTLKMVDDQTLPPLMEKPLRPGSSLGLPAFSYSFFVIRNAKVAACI
Nature of the test: Pro-heparanase (H60) activation in a cell-based assay. The settings on record: inhibition of pro-heparanase activation in CHO cells; NI = no inhibition. The method, then:
Pro-heparanase (H60) activation in a cell-based assay: Chinese hamster ovary (CHO) cells were grown in complete F12 medium supplemented with 10% fetal calf serum (FCS). […] The plates were incubated for 24 hours in a 37° C. humidified incubator with 5% CO2. […] The plates were further incubated for additional 4 hours. The pro-heparanase was allowed to internalize by the cells and further processed to generate the active 53 kDa heparanase. At the end of the incubation, the cells were lysed by three consecutive cycles of freezing and thawing in a −80° C. freezer and a 37° C. shaker.
The rigidified compounds described herein were tested for inhibition of pro-heparanase activation in the cell-based assay described above.

Test [2] deals with T2, vascular endothelial growth factor (VEGF) (Homo sapiens, UniProt P15692).
T2 sequence (P15692 27-191 isoform P15692-4): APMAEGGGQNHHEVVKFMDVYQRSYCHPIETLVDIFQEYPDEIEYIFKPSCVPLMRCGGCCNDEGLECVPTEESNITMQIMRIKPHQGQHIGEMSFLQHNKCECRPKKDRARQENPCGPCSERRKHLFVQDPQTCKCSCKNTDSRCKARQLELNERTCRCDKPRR
The experiment in a line: ELISA for determination of binding of VEGF to heparin. Conditions: for IC50: inhibition of VEGF binding to heparin, NI = no inhibition; for inhibition of VEGF binding to heparin: inhibition towards both growth factors. The protocol:
Enzyme-linked immunosorbent assay (ELISA) for determination of binding of vascular endothelial growth factor (VEGF) to heparin: 96-well microplates were coated for 2 hours. at 23-25° C. with 5 μg/ml heparin-albumin (Rimon Biotech) and blocked with 1% bovine serum albumin (BSA) in phosphate buffer (PBS) with 0.05% Tween and 0.01% thimerosal for 2 hours. VEGF was added to the plates at a concentration of 10 ng/ml and the plates were thereafter incubated for 45 minutes at 23-25° C. The amount of VEGF bound to heparin was detected using anti-VEGF monoclonal antibody (Sigma Cat. No. V4758) at a concentration of 0.26 μg/ml and secondary antibodies Sheep anti-mouse IgG linked to horseradish peroxidase (1:2000) using 3,3′,5,5′-tetramethylbenzidine (TMB, Pierce Cat. No. 34021) as a substrate for peroxidase. The plates were read at 450 nm with a reference wavelength of 630 nm using a VERSAmax plate reader. […] Percent inhibition was calculated as compared with a control pre-incubated with a solution of 1% DMSO and the results are presented in Table 3 below.
Background: In an ELISA, binding on a coated surface is turned into a signal by an enzyme label.

A further test deals with β-FGF (Homo sapiens, UniProt P09038). Nature of the test: ELISA for determination of binding of β-FGF to heparin. The settings on record: for IC50: inhibition of β-FGF binding to heparin, NI = no inhibition; for inhibition of β-FGF binding to heparin: inhibition towards both growth factors. The method, then:
ELISA for determination of binding of β-FGF to heparin: 96-well microplates were coated for 2 hours at 23-25° C. with 5 μg/ml heparin-albumin (Rimon Biotech) and blocked with 1% BSA in PBS, with 0.05% Tween, and 0.01% thimerosal for 2 hours. β-FGF was added to the plates at a concentration of 10 ng/ml and plates were incubated for 45 minutes at 23-25° C. The amount of β-FGF bound to heparin was detected using anti-FGF monoclonal antibody (Sigma Cat. No. F6162) at a concentration of 2.5 ng/ml and secondary antibodies Sheep anti-mouse IgG linked to horseradish peroxidase (1:3000) TMB (Pierce Cat. No. 34021) was used as a substrate for peroxidase. The plates were read at 450 nm with a reference wavelength of 630 nm using a VERSAmax plate reader.

Chain of β-FGF (P09038 143-288): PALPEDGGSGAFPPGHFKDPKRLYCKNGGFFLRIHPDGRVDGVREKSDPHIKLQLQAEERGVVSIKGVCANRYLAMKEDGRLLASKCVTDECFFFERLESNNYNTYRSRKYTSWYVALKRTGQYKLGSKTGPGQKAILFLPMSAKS

In the case of “4-[2-(4-Nitro-phenyl)-4,6-dioxo-6H-1-oxa-3b,5-diaza-cyclopenta[a]pentalen-5-yl]-butyric acid ethyl ester [Compound 30]”, the figures for the IC50 in test [1] and in test [2] were 3900 nM and 100 nM, respectively.

With `CCOC(=O)CCCN1C(=O)c2cc3oc(-c4ccc([N+](=O)[O-])cc4)cc3n2C1=S` [Compound 1, ethyl 4-[2-(4-nitro-phenyl)-6-oxo-4-thioxo-6H-1-oxa-3b,5-diaza-cyclopenta[a]pentalen-5-yl]-butyric acid ethyl ester], the half-inhibitory concentration (IC50) is 130 nM in test [2] and 140 nM at β-FGF.

Turning to `CON(C)C(=O)CCCN1C(=O)c2cc3oc(-c4ccc([N+](=O)[O-])cc4)cc3n2C1=S` [Compound 3, N-methoxy-N-methyl-4-[2-(4-nitro-phenyl)-6-oxo-4-thioxo-6H-1-oxa-3b,5-diaza-cyclopenta[a]pentalen-5-yl]-butyramide], in test [2], the IC50 amounted to 250 nM and the “inhibition of VEGF binding to heparin” value was “sub-micromolar”. In addition, at β-FGF, the concentration for half-maximal inhibition (IC50) came to 90 nM and the “inhibition of β-FGF binding to heparin” value is reported as “sub-micromolar”.

With `CCOC(=O)CCCN1C(=O)c2cc3oc(-c4ccc(Cl)cc4)cc3n2C1=S` [Compound 4, ethyl 4-[2-(4-chloro-phenyl)-6-oxo-4-thioxo-6H-1-oxa-3b,5-diaza-cyclopenta[a]pentalen-5-yl]-butyric acid ethyl ester], the half-maximal inhibitory concentration (IC50) in test [1] is 760 nM; in test [2], 130 nM; on β-FGF, 60 nM.

Take `CCOC(=O)CC(C)(C)CN1C(=O)c2cc3oc(-c4ccc([N+](=O)[O-])cc4)cc3n2C1=S` [Compound 7, 3,3-dimethyl-4-[2-(4-nitro-phenyl)-6-oxo-4-thioxo-6H-1-oxa-3b,5-diaza-cyclopenta[a]pentalen-5-yl]-butyric acid ethyl ester]: the IC50 in test [1] amounted to 2600 nM. Moreover, in test [2], the IC50 was 100 nM and the “inhibition of VEGF binding to heparin” value is reported as “sub-micromolar”. At β-FGF, the IC50 is 50 nM and the “inhibition of β-FGF binding to heparin” value is reported as “sub-micromolar”.

Turning to `CC(C)(CC(=O)O)CN1C(=O)c2cc3oc(-c4ccc([N+](=O)[O-])cc4)cc3n2C1=S` [Compound 8, 3,3-Dimethyl-4-[2-(4-nitro-phenyl)-6-oxo-4-thioxo-6H-1-oxa-3b,5-diaza-cyclopenta[a]pentalen-5-yl]-butyric acid], the half-inhibitory concentration (IC50) in test [1] stood at 780 nM.

For the compound `CC(C)(CC(=O)NO)CN1C(=O)c2cc3oc(-c4ccc([N+](=O)[O-])cc4)cc3n2C1=S` [Compound 9, N-hydroxy-3,3-dimethyl-4-[2-(4-nitro-phenyl)-6-oxo-4-thioxo-6H-1-oxa-3b,5-diaza-cyclopenta[a]pentalen-5-yl]-butyramide], the 50% inhibitory concentration (IC50) in test [1] turned out to be 170 nM.

For the compound `CCOC(=O)CC(C)(C)CN1C(=O)c2cc3oc(-c4ccc(Cl)cc4)cc3n2C1=S` [Compound 10, 4-[2-(4-Chloro-phenyl)-6-oxo-4-thioxo-6H-1-oxa-3b,5-diaza-cyclopenta[a]pentalen-5-yl]-3,3-dimethyl-butyric acid ethyl ester], the IC50 in test [1] came to 1500 nM. In addition, in test [2], the IC50 is 170 nM and the “inhibition of VEGF binding to heparin” value is listed as “sub-micromolar”. At β-FGF, the IC50 came out at 200 nM and the “inhibition of β-FGF binding to heparin” value is reported as “sub-micromolar”.

Consider `CC(C)(CC(=O)On1nnc2ccccc2c1=O)CN1C(=O)c2cc3oc(-c4ccc(Cl)cc4)cc3n2C1=S` [Compound 12, 4-[2-(4-Chloro-phenyl)-6-oxo-4-thioxo-6H-1-oxa-3b,5-diaza-cyclopenta[a]pentalen-5-yl]-3,3-dimethyl-butyric acid 4-oxo-4H-benzo[d][1,2,3]triazin-3-yl ester], for which, in test [2], the half-maximal inhibitory concentration (IC50) is 260 nM and the “inhibition of VEGF binding to heparin” value is “sub-micromolar”. Besides, at β-FGF, the half-inhibitory concentration (IC50) worked out at 160 nM and the “inhibition of β-FGF binding to heparin” value is given as “sub-micromolar”.

For the compound `CCN(CC)C(=O)CC(C)(C)CN1C(=O)c2cc3oc(-c4ccc(Cl)cc4)cc3n2C1=S` [Compound 13, 4-[2-(4-Chloro-phenyl)-6-oxo-4-thioxo-6H-1-oxa-3b,5-diaza-cyclopenta[a]pentalen-5-yl]-N,N-diethyl-3,3-dimethyl-butyramide], the 50% inhibitory concentration (IC50) in test [1] was found to be 1400 nM; in test [2], 550 nM; at β-FGF, 220 nM. Moreover, the “inhibition of VEGF binding to heparin” value in test [2] is reported as “sub-micromolar”. Further, the “inhibition of β-FGF binding to heparin” value on β-FGF is recorded as “sub-micromolar”.

Turning to `CN(C)CCNC(=O)CC(C)(C)CN1C(=O)c2cc3oc(-c4ccc(Cl)cc4)cc3n2C1=S` [Compound 14, 4-[2-(4-Chloro-phenyl)-6-oxo-4-thioxo-6H-1-oxa-3b,5-diaza-cyclopenta[a]pentalen-5-yl]-N-(2-dimethylamino-ethyl)-3,3-dimethyl-butyramide], the IC50 in test [1] was 120 nM. Also, in test [2], the half-maximal inhibitory concentration (IC50) worked out at 260 nM and the “inhibition of VEGF binding to heparin” value was “sub-micromolar”. In addition, on β-FGF, the IC50 was 470 nM and the “inhibition of β-FGF binding to heparin” value is on record as “sub-micromolar”.

For `CCOP(=O)(CCCN1C(=O)c2cc3oc(-c4ccc(Cl)cc4)cc3n2C1=S)OCC` [Compound 27, {3-[2-(4-chloro-phenyl)-6-oxo-4-thioxo-6H-1-oxa-3b,5-diaza-cyclopenta[a]pentalen-5-yl]-propyl}-phosphonic acid diethyl ester], the IC50 in test [1] was determined as 260 nM; in test [2], 300 nM.

In the case of `CCOC(=O)CCCN1C(=O)c2cc3oc(Oc4ccc([N+](=O)[O-])cc4)cc3n2C1=S` [Compound 33, ethyl 4-[2-(4-nitro-phenoxy)-6-oxo-4-thioxo-6H-1-oxa-3b,5-diaza-cyclopenta[a]pentalen-5-yl]-butyric acid ethyl ester], in test [1], the IC50 worked out at 16000 nM.

For `CCOC(=O)CCCN1C(=O)c2cc3oc4ccc([N+](=O)[O-])cc4c3n2C1=S` [Compound 38, ethyl 4-[2,3-(3-nitro-phenyl)-6-oxo-4-thioxo-6H-1-oxa-3b,5-diaza-cyclopenta[a]pentalen-5-yl]-butyric acid ethyl ester], the IC50 in test [2] is 22500 nM; at β-FGF, 11500 nM.

As to `CCOC(=O)CCCn1c(=S)sc2c(N)snc21` [Compound 43, ethyl 4-(3-amino-5-thioxo-thiazolo[4,5-c]isothiazol-6-yl)-butyric acid ethyl ester], the half-maximal inhibitory concentration (IC50) in test [1] came to 25000 nM.

`CCOC(=O)CCCn1c(=S)sc2c(I)snc21` [Compound 44, ethyl 4-(3-iodo-5-thioxo-thiazolo[4,5-c]isothiazol-6-yl)-butyric acid ethyl ester]: the half-inhibitory concentration (IC50) in test [1] amounted to 7000 nM.

As to `CCOC(=O)CCCn1c(=S)sc2c(-c3ccc(-c4ccc([N+](=O)[O-])cc4)o3)snc21` [Compound 45, 4-{3-[5-(4-nitro-phenyl)-furan-2-yl]-5-thioxo-thiazolo[4,5-c]isothiazol-6-yl}-butyric acid ethyl ester], in test [2], the IC50 came to 15000 nM.
